Measured values taken from US11878995B2, “Oxysterols and methods of use thereof” (SAGE THERAPEUTICS, INC., priority 2016, dated 2024).

Target: T1, GlunN1/GluN2A glutamate receptors (Homo sapiens, UniProt Q05586+Q12879)
T1 construct: expressed in transfected cells
Assay: Whole-cell patch clamp of mammalian cells (Ionworks Barracuda), NMDA potentiation
Assay type: cell-based
Conditions: 3 μM compound; HEK293 cells expressing human GRIN1/GRIN2A; co-application with EC20 L-glutamate and 30 μM glycine
Protocol: NMDA potentiation was assessed using either whole cell patch clamp of mammalian cells which expressed NMDA receptors.
Whole-Cell Patch Clamp of Mammalian Cells (Ionworks Barracuda (IWB))
The whole-cell patch-clamp technique was used to investigate the effects of compounds on GlunN1/GluN2A glutamate receptors expressed in mammalian cells.
HEK293 cells were transformed with adenovirus 5 DNA and transfected with cDNA encoding the human GRIN1/GRIN2A genes. Stable transfectants were selected using G418 and Zeocin-resistance genes incorporated into the expression plasmid and selection pressure maintained with G418 and Zeocin in the medium. Cells were cultured in Dulbecco's Modified Eagle Medium/Nutrient Mixture (D-MEM/F-12) supplemented with 10% fetal bovine serum, 100 μg/ml penicillin G sodium, 100 μg/ml streptomycin sulphate, 100 μg/ml Zeocin, 5 μg/ml blasticidin and 500 μg/ml G418.
Test article effects were evaluated in 8-point concentration-response format (4 replicate wells/concentration). […]
• a) Intracellular solution (mM): 50 mM CsCl, 90 mM CsF, 2 mM MgCl2, 5 mM EGTA, 10 mM HEPES. […] Cell suspension will be pipetted into the wells (9 μL per well) of the PPC planar electrode. • b) Whole-cell recording configuration will be established via patch perforation with membrane currents recorded by on-board patch clamp amplifiers. • c) Two recordings (scans) will be performed. […]

T1 sequence (Q12879 23-1464, other chains not shown): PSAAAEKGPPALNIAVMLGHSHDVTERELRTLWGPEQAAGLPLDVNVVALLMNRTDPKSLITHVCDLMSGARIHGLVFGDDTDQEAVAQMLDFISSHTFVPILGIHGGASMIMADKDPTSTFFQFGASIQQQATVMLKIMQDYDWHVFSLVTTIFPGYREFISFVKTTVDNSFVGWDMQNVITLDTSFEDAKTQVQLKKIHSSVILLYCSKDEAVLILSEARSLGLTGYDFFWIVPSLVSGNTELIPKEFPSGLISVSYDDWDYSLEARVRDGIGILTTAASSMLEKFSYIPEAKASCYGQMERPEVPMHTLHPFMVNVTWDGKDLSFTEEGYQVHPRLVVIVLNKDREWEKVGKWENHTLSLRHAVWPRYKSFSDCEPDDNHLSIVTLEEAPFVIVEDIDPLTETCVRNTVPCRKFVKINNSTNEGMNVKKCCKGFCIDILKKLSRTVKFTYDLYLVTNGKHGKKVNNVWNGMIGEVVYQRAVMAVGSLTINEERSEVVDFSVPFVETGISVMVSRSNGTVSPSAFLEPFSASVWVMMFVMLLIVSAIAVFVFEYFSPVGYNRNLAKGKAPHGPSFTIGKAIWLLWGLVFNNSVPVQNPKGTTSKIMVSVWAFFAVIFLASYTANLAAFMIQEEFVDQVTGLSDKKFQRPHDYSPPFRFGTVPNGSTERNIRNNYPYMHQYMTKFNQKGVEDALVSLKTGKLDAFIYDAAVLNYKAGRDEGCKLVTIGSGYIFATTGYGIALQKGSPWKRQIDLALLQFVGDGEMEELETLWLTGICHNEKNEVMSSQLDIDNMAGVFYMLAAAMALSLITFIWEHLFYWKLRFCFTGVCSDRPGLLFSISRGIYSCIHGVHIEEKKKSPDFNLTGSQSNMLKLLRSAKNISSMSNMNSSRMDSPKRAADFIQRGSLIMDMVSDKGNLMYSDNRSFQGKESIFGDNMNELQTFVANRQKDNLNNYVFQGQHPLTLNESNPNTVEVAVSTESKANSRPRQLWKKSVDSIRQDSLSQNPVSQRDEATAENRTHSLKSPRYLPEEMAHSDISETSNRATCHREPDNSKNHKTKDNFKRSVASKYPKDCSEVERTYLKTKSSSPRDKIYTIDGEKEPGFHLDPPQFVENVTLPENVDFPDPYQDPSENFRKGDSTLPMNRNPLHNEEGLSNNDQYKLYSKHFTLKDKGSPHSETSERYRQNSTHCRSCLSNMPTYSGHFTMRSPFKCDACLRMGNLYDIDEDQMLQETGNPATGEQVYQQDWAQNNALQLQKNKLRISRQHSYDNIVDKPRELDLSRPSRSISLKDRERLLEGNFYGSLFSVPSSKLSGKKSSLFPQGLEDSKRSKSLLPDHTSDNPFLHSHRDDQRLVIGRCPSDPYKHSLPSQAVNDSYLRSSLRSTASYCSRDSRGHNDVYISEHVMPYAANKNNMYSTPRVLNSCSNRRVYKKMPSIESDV

Structure (SMILES): [2H]C(O)(CC[C@@H](C)[C@H]1CC[C@H]2[C@@H]3CC=C4C[C@]([2H])(O)CC[C@]4(C)[C@H]3CC[C@]12C)C(C)C (stereo partly shown) [Compound 7]
- GluN2A PCA IWB Ephys % potentiation at 3 μM: C (“C” indicates potentiation of >150% to 225%)
